Among the test systems are M14 melanoma; CCRF-CEM leukemia; SF-539 CNS; MDA-MB-231 breast; HCT-15 colon; MOLT-4 leukemia; SK-MEL-28 melanoma; SR leukemia; NCI-H226 lung; 786-0 renal.
Assay in all cases: growth of human tumour cells (NCI), 48 h

Experimental findings from PubChem BioAssay (NCI) are described below.

Each structure is given as a SMILES string.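 Results reflect a 48-hour exposure of cells in 96-well plates to compound at five concentrations. Here, GI50 denotes the concentration required for 50% inhibition of growth. TGI denotes the concentration required for complete inhibition of growth.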

`COc1cc(/C=N/NC(=O)c2cnn3c2NC(c2ccccc2)C3)ccc1OC1CCCC1` (stereo not given): the GI50 with M14 melanoma is 0.646 µM; in the assay with CCRF-CEM leukemia, 0.691 µM; in the assay with SF-539 CNS it was 0.537 µM; with MDA-MB-231 breast, 1.67 µM; with HCT-15 colon it was 0.5 µM; in the assay with MOLT-4 leukemia it was 1.23 µM. In addition, the GI50 is 1.25 µM in the assay on SK-MEL-28 melanoma, 0.252 µM in the assay on SR leukemia, 1.64 µM in the assay with NCI-H226 lung and 0.639 µM with 786-0 renal. For the same compound, the TGI in the assay with M14 melanoma was 5.19 µM; in the assay with CCRF-CEM leukemia it was 10.8 µM; with SF-539 CNS, 1.99 µM; in the assay with MDA-MB-231 breast it was 7.85 µM; with HCT-15 colon it was 10.8 µM; in the assay with MOLT-4 leukemia, 11.1 µM. Further, the TGI with SK-MEL-28 melanoma came out at 9.15 µM; with SR leukemia, 3.78 µM; with NCI-H226 lung, 6.12 µM; in the assay on 786-0 renal, 3.73 µM.

As for `O=C1/C(=C/c2ccccc2)Oc2cc(O)ccc21`, the TGI with M14 melanoma, with CCRF-CEM leukemia, in the assay with SF-539 CNS, with MDA-MB-231 breast, in the assay on HCT-15 colon and with MOLT-4 leukemia was above 100 µM in each case. In addition, the TGI with SK-MEL-28 melanoma, in the assay on SR leukemia, in the assay with NCI-H226 lung and with 786-0 renal was above 100 µM each time.

Turning to `Nc1cc2c3c(cccc3c1)C(=O)N(CCN1CCCC1)C2=O`, the GI50 was 3.92 µM with M14 melanoma; 3.88 µM in the assay on CCRF-CEM leukemia; 3.87 µM with SF-539 CNS; 4.95 µM with MDA-MB-231 breast; 2.02 µM in the assay with HCT-15 colon; 1.74 µM with MOLT-4 leukemia. Also, the GI50 in the assay on SK-MEL-28 melanoma is 4.28 µM; with SR leukemia, 0.979 µM; in the assay on NCI-H226 lung, 1.98 µM; in the assay on 786-0 renal it was 4.5 µM. The TGI is 21.7 µM with M14 melanoma; above 35.6 µM in the assay with CCRF-CEM leukemia; 18.2 µM with SF-539 CNS; 40.7 µM with MDA-MB-231 breast; above 100 µM in the assay on HCT-15 colon; above 46.4 µM with MOLT-4 leukemia. In addition, the TGI in the assay with SK-MEL-28 melanoma is 18.2 µM; in the assay on SR leukemia, above 22.4 µM; with NCI-H226 lung, 6.23 µM; in the assay on 786-0 renal, above 55.7 µM.

As for `CC1CCC2C(C)C(=O)OC2C2(C)C(=O)C=CC12` (stereo not given), the TGI in the assay on M14 melanoma, in the assay on CCRF-CEM leukemia, in the assay with SF-539 CNS, in the assay on MDA-MB-231 breast, in the assay on HCT-15 colon and with MOLT-4 leukemia was above 10 µM in each case. Moreover, the TGI in the assay with SK-MEL-28 melanoma, in the assay on SR leukemia, in the assay on NCI-H226 lung and in the assay with 786-0 renal was above 10 µM in each case.

Turning to `Oc1ccc(Cl)cc1C=Nc1cnc2ccccc2c1`, the TGI is above 100 µM in the assay on M14 melanoma; 7.1 µM in the assay with CCRF-CEM leukemia; 45.8 µM with SF-539 CNS; above 85.7 µM in the assay on MDA-MB-231 breast; above 100 µM in the assay on HCT-15 colon; 47.2 µM in the assay on MOLT-4 leukemia. The TGI in the assay with SK-MEL-28 melanoma, in the assay on SR leukemia, in the assay with NCI-H226 lung and with 786-0 renal was above 100 µM in each case.

Regarding `CSc1nc(Nc2cccc(NC(=O)CCl)c2)c(C#N)c(-c2cccc([N+](=O)[O-])c2)n1`, the GI50 was 2.01 µM in the assay with M14 melanoma; 0.34 µM in the assay on CCRF-CEM leukemia; 0.216 µM in the assay with SF-539 CNS; 2.39 µM in the assay with MDA-MB-231 breast; 1.66 µM with HCT-15 colon; 1.32 µM in the assay with MOLT-4 leukemia. Also, the GI50 was 2.15 µM in the assay on SK-MEL-28 melanoma, 0.387 µM in the assay with SR leukemia, 2.15 µM in the assay with NCI-H226 lung and 2.94 µM in the assay on 786-0 renal. In addition, the TGI is 6.08 µM with M14 melanoma; above 100 µM in the assay with CCRF-CEM leukemia; 0.528 µM in the assay with SF-539 CNS; 10.7 µM with MDA-MB-231 breast; 4.1 µM with HCT-15 colon; 6.37 µM in the assay on MOLT-4 leukemia. The TGI in the assay on SK-MEL-28 melanoma was 4.28 µM; in the assay on SR leukemia it was above 100 µM; in the assay on NCI-H226 lung, 6.32 µM; in the assay with 786-0 renal it was 43.7 µM.

With `Cc1ccc(/C(=N/Nc2ccc([N+](=O)[O-])cc2)Sc2cc(Cl)c(C)cc2S(N)(=O)=O)cc1`, the GI50 in the assay with M14 melanoma is 1.78 µM; with CCRF-CEM leukemia it was 2.11 µM; in the assay with SF-539 CNS, 1.1 µM; in the assay with MDA-MB-231 breast, 0.8 µM; with HCT-15 colon it was 3.64 µM; in the assay with MOLT-4 leukemia, 3.35 µM. Also, the GI50 in the assay with SK-MEL-28 melanoma is 3.03 µM; in the assay on SR leukemia, 0.945 µM; with NCI-H226 lung it was 1.64 µM; in the assay with 786-0 renal, 1.82 µM. The TGI was 3.85 µM with M14 melanoma; 4.58 µM with CCRF-CEM leukemia; 2.97 µM in the assay with SF-539 CNS; 2.24 µM in the assay on MDA-MB-231 breast; above 49.6 µM in the assay on HCT-15 colon; 12.3 µM with MOLT-4 leukemia. Moreover, the TGI in the assay on SK-MEL-28 melanoma came out at 8.9 µM; in the assay on SR leukemia it was 3.55 µM; in the assay with NCI-H226 lung, 3.57 µM; in the assay with 786-0 renal it was 3.37 µM.

Consider `COc1cc(C2CC(c3ccc(Nc4nc(NCCO)nc(NCCO)n4)cc3)=NN2c2cc(Cl)cc(Cl)c2)cc(OC)c1OC` (stereo not given), for which the GI50 in the assay with M14 melanoma is 1.58 µM; in the assay with CCRF-CEM leukemia it was 2.53 µM; in the assay on SF-539 CNS, 1.2 µM; in the assay on MDA-MB-231 breast, 1.45 µM; with HCT-15 colon, 1.5 µM; in the assay on MOLT-4 leukemia it was 1 µM. Besides, the GI50 in the assay with SK-MEL-28 melanoma is 1.53 µM; with SR leukemia, 1.29 µM; in the assay on NCI-H226 lung, 3.85 µM; in the assay with 786-0 renal it was 1.29 µM. Besides, the TGI with M14 melanoma turned out to be 3.24 µM; in the assay with CCRF-CEM leukemia it was 10.7 µM; with SF-539 CNS it was 2.57 µM; with MDA-MB-231 breast, 3.44 µM; in the assay on HCT-15 colon, 3.13 µM; in the assay on MOLT-4 leukemia it was 4.12 µM. The TGI with SK-MEL-28 melanoma is 3.14 µM; in the assay on SR leukemia, 4.11 µM; in the assay with NCI-H226 lung, 16.8 µM; in the assay with 786-0 renal, 2.59 µM.
